The source of these data is patent EP3345917A1, “ANTIPROTOZOAL COMPOUNDS” (Bacoba AG, priority 2017, dated 2018).

Like-named read-outs stand apart in the source and are kept apart here. Non-standard residues stand in square brackets, D forms with d. Residues, ends and D or L forms follow the SMILES beside them. *: point of attachment. CH3O(CH2CH2O)11CH2CH2CO = COCCOCCOCCOCCOCCOCCOCCOCCOCCOCCOCCOCCC(=O)*; Hexenoyl(2E,4S-Me) = CC[C@H](C)/C=C/C(=O)*; Leu(3R-OH) = CC(C)[C@@H](O)[C@H](N)C(=O)O; NH((S)CH(Me)CH2NMe2) = C[C@@H](CN(C)C)N*; NH(1-CH2NMe2-cBu) = CN(C)CC1(N*)CCC1; Gly(octyl) = CCCCCCCC[C@H](N)C(=O)O; Oxazole4CO(2-Me) = Cc1nc(C(=O)*)co1; X3 = O=C(c1coc(-c2ccccc2)n1)*; Morpholide = C1CN(*)CCO1; X24 = CN1CC2(C1)CN(*)C2; X25 = CN(C)CC1(N*)CCCC1; X23 = CN1CCC12CN(*)C2; Aib = CC(C)(N)C(=O)O; βAla = NCCC(=O)O

The subject of series [1] is Trypanosoma brucei rhodesiense (STIB 900 strain). Description: Alamar Blue assay against Trypanosoma brucei rhodesiense grown in axenic medium. The format is cell-based. The procedure:
(§1) Tests were done in triplicate.
Trypanosoma brucei rhodesiense (STIB 900) were grown in axenic medium as described by Baltz et al. (1985) The samples were tested using the Alamar Blue assay protocol (Baltz T et al. EMBO J 1985; 4:1273-1277) to determine the 50% inhibitory concentration (IC50). […] Melarsoprol (Arsobal®, Sanofi-Aventis, Switzerland) was used as a reference drug (IC50= 0.03 ± 0.01 µM). Its purity was over 95 %, as was certified by the supplier. The IC50 values were calculated by using Softmax Pro software (Molecular Devices Cooperation, Sunnyvale, CA).
For orientation: Resazurin is reduced to fluorescent resorufin, in cell work by metabolically active cells.

Series [2] is described as follows: Cytotoxicity assay on L6-cells (Alamar Blue). As to conditions: rat, Cytotox L6, Cytotoxicity against rat myoblast cells (L6).
The test system of series [3] is Trypanosoma cruzi trypomastigote forms (Tulahuen strain). As to the kind of experiment: Intracellular Trypanosoma cruzi assay in L6-cells, beta-galactosidase/CPRG readout. The series is classed as cell-based. The procedure: as §1
Trypanosoma cruzi trypomastigote forms (Tulahuen strain C2C4 containing β-galactosidase (Lac Z) gene) were cultured as described by Buckner et al. (Buckner FS et al. Antimicrob Agents Ch1996; 40: 2592-2597) in rat myoblast cells (L6-cells). […] After incubation, the substrate chlorophenyl red β-D-galactopyranoside agent CPRG/Nonident was added to all wells and a color change was developed within 2 to 6 h. The plates were read photometrically at 540 nm (Molecular Devices). Data were evaluated and IC50 values calculated using Softmax Pro software (Molecular Devices).

For series [4], the system named is Axenically grown Leishmania donovani amastigotes (strain MHOM/ET/67/L82). Description: Axenic Leishmania donovani amastigote resazurin assay. The series is classed as cell-based. On the procedure: as §1
Axenically grown Leishmania donovani amastigotes (strain MHOM/ET/67/L82) were grown and tests were done as previously described using the resazurin assay (Räz B et al. Acta Tropica 1997, 68:139-147). The plates were developed for 2-4 hours and read on a Spectramax Gemini XS micro plate fluorometer (Molecular Devices Cooperation) using an excitation wavelength of 536 nm and emission wavelength of 588 nm. Fluorescence development was measured and expressed as percentage of the negative control. […] Data were transferred to the graphic programme Softmax Pro (Molecular Devices), with which IC50 values were calculated.

The mark [5] stands for this setting: In vitro inhibition, read-out: T.b.rhod.
The mark [6] stands for this setting: In vitro inhibition, read-out: T.cruzi.
Where [7] appears, read: In vitro inhibition, read-out: L.don. ax.

Take `Nc1nc(N)nc(Nc2ccc([As]3SCC(CO)S3)cc2)n1` (centres unmarked) [Melarsoprol, melarsoprol]: the IC50 in series [1] (read-out: T.b.rhod.) is 7 nM; in series [1] (reference drug, T. b. rhodesiense STIB 900, Alamar Blue, read-out: IC50), 30 ± 10 nM.
Take `CCCCCCCC[C@H](NC(=O)[C@@H]1CCCN1C(=O)/C=C/[C@@H](C)CC)C(=O)N[C@H](C(=O)NC(C)(C)C(=O)N[C@@H](CC(C)C)C(=O)N[C@@H](CC(C)C)C(=O)NC(C)(C)C(=O)NC(C)(C)C(=O)NCCC(=O)N1CCOCC1)[C@H](O)C(C)C` [Compound 5572] ({Hexenoyl(2E,4S-Me)}-P[Gly(octyl)][Leu(3R-OH)][Aib]LL[Aib][Aib][βAla]-Morpholide): in series [2], the IC50 at 70 h was 1420 nM.
Still for that read-out and setting: under `CCCCCCCC[C@H](NC(=O)[C@@H]1CCCN1C(=O)c1coc(-c2ccccc2)n1)C(=O)N[C@@H](CC(C)C)C(=O)NC(C)(C)C(=O)N[C@@H](CC(C)C)C(=O)N[C@@H](CC(C)C)C(=O)NC(C)(C)C(=O)NC(C)(C)C(=O)NCCC(=O)N[C@@H](C)CN(C)C` [Compound 5906, (2S)-N-[(1S)-1-[(1-{[(1S)-1-{[(1S)-1-{[1-({1-[(2-{[(2S)-1-(dimethylamino)propan-2-yl]carbamoyl}ethyl)carbamoyl]-1-methylethyl}carbamoyl)-1-methylethyl]carbamoyl}-3-methylbutyl]carbamoyl}-3-methylbutyl]carbamoyl}-1-methylethyl)carbamoyl]-3-methylbutyl]-2-{[(2S)-1-(2-phenyl-1,3-oxazole-4-carbonyl)pyrrolidin-2-yl]formamido}decanamide] (X3-P[Gly(octyl)]L[Aib]LL[Aib][Aib][βAla]-{NH((S)CH(Me)CH2NMe2)}) stands 445 nM.
With `CCCCCCCC[C@H](NC(=O)[C@@H]1CCCN1C(=O)c1coc(C)n1)C(=O)N[C@@H](CC(C)C)C(=O)NC(C)(C)C(=O)N[C@@H](CC(C)C)C(=O)N[C@@H](CC(C)C)C(=O)NC(C)(C)C(=O)NC(C)(C)C(=O)NCCC(=O)N1CC2(CN(C)C2)C1` [Compound 6256, (2S)-2-{[(2S)-1-(2-methyl-1,3-oxazole-4-carbonyl)pyrrolidin-2-yl]formamido}-N-[(1S)-3-methyl-1-[(1-methyl-1-[(1S)-3-methyl-1-{[(1S)-3-methyl-1-{{[1-methyl-1-({1-methyl-1-[(3-{6-methyl-2,6-diazaspiro[3.3]heptan-2-yl}-3-oxopropyl)carbamoyl]ethyl}carbamoyl)ethyl]carbamoyl}butyl]carbamoyl}butyl]carbamoyl}ethyl)carbamoyl]butyl]decanamide] ({Oxazole4CO(2-Me)}-P[Gly(octyl)]L[Aib]LL[Aib][Aib][βAla]-X24), the IC50 in series [1] (setting [5]) turned out to be 316 nM; in series [3] (setting [6]), 4010 nM; in series [4] (setting [7]), 8670 nM. The same molecule returned an IC50 at 70 h in series [2] greater than 8060 nM.
With `CCCCCCCCCCCCCCCCOP(=O)([O-])OCC[N+](C)(C)C` [Miltfosine], the IC50 in series [4] (Leishmania donovani, reference drug, axenic L. donovani amastigotes, resazurin assay, read-out: IC50) amounted to 0.241 µg/mL.
As for `CCCCCCCC[C@H](NC(=O)[C@@H]1CCCN1C(=O)/C=C/[C@@H](C)CC)C(=O)N[C@H](C(=O)NC(C)(C)C(=O)N[C@@H](CC(C)C)C(=O)N[C@@H](CC(C)C)C(=O)NC(C)(C)C(=O)NC(C)(C)C(=O)NCCC(=O)N[C@@H](C)CN(C)C)[C@@H](C)O` [Compound 5520] ({Hexenoyl(2E,4S-Me)}-P[Gly(octyl)]T[Aib]LL[Aib][Aib][βAla]-{NH((S)CH(Me)CH2NMe2)}), the IC50 at 70 h in series [2] turned out to be 930 nM.
On to `CCCCCCCC[C@H](NC(=O)[C@@H]1CCCN1C(=O)c1coc(C)n1)C(=O)N[C@@H](CC(C)C)C(=O)NC(C)(C)C(=O)N[C@@H](CC(C)C)C(=O)N[C@@H](CC(C)C)C(=O)NC(C)(C)C(=O)NC(C)(C)C(=O)NCCC(=O)NC1(CN(C)C)CCC1` [Compound 6253, (2S)-N-[(1S)-1-[(1-{[(1S)-1-{[(1S)-1-({1-[(1-{[2-({1-[(dimethylamino)methyl]cyclobutyl}carbamoyl)ethyl]carbamoyl}-1-methylethyl)carbamoyl]-1-methylethyl}carbamoyl)-3-methylbutyl]carbamoyl}-3-methylbutyl]carbamoyl}-1-methylethyl)carbamoyl]-3-methylbutyl]-2-{[(2S)-1-(2-methyl-1,3-oxazole-4-carbonyl)pyrrolidin-2-yl]formamido}decanamide] ({Oxazole4CO(2-Me)}-P[Gly(octyl)]L[Aib]LL[Aib][Aib][βAla]-{NH(1-CH2NMe2-cBu)}), for which the IC50 in series [1] (setting [5]) was less than 0.9 nM; in series [3] (setting [6]), 68.4 nM; in series [4] (setting [7]) it was 46800 nM.
As for `O=C(Cn1ccnc1[N+](=O)[O-])NCc1ccccc1` [Benznidazol], the IC50 in series [3] (TULAHUEN, In vitro inhibition, intracellular Trypanosoma cruzi, read-out: T.cruzi.) worked out at 2080 nM.
Molecule `CCCCCCCC[C@H](NC(=O)[C@@H]1CCCN1C(=O)CCOCCOCCOCCOCCOCCOCCOCCOCCOCCOCCOCCOC)C(=O)N[C@@H](CC(C)C)C(=O)NC(C)(C)C(=O)N[C@@H](CC(C)C)C(=O)N[C@@H](CC(C)C)C(=O)NC(C)(C)C(=O)NC(C)(C)C(=O)NCCC(=O)N[C@@H](C)CN(C)C` [Compound 6067, (2S)-N-[(1S)-1-[(1-{[(1S)-1-{[(1S)-1-{[1-({1-[(2-{[(2S)-1-(dimethylamino)propan-2-yl]carbamoyl}ethyl)carbamoyl]-1-methylethyl}carbamoyl)-1-methylethyl]carbamoyl}-3-methylbutyl]carbamoyl}-3-methylbutyl]carbamoyl}-1-methylethyl)carbamoyl]-3-methylbutyl]-2-{[(2S)-1-(2,5,8,11,14,17,20,23,26,29,32,35-dodecaoxaoctatriacontanoyl)pyrrolidin-2-yl]formamido}decanamide] ({CH3O(CH2CH2O)11CH2CH2CO}-P[Gly(octyl)]L[Aib]LL[Aib][Aib][βAla]-{NH((S)CH(Me)CH2NMe2)}) returned an IC50 at 70 h in series [2] of 4640 nM.
On to `CCCCCCCC[C@H](NC(=O)[C@@H]1CCCN1C(=O)c1coc(C)n1)C(=O)N[C@@H](CC(C)C)C(=O)NC(C)(C)C(=O)N[C@@H](CC(C)C)C(=O)N[C@@H](CC(C)C)C(=O)NC(C)(C)C(=O)NC(C)(C)C(=O)NCCC(=O)N1CC2(CCN2C)C1` [Compound 6255, (2S)-2-{[(2S)-1-(2-methyl-1,3-oxazole-4-carbonyl)pyrrolidin-2-yl]formamido}-N-[(1S)-3-methyl-1-[(1-methyl-1-[(1S)-3-methyl-1-{[(1S)-3-methyl-1-{{[1-methyl-1-({1-methyl-1-[(3-{1-methyl-1,6-diazaspiro[3.3]heptan-6-yl}-3-oxopropyl)carbamoyl]ethyl}carbamoyl)ethyl]carbamoyl}butyl]carbamoyl}butyl]carbamoyl}ethyl)carbamoyl]butyl]decanamide] ({Oxazole4CO(2-Me)}-P[Gly(octyl)]L[Aib]LL[Aib][Aib][βAla]-X23), for which the IC50 in series [1] (setting [5]) was determined as 461 nM; in series [3] (setting [6]), 3710 nM; in series [4] (setting [7]) it was 4090 nM. In addition, the IC50 at 70 h in series [2] was found to be 7170 nM.
For the molecule `O=C(Cn1ccnc1[N+](=O)[O-])NCc1ccccc1` [Benznidazole, benznidazole], the IC50 in series [3] (Trypanosoma cruzi, standard drug, T. cruzi Tulahuen C2C4 in L6-cells, read-out: IC50) amounted to 0.48 µg/mL.
`CCCCCCCC[C@H](NC(=O)[C@@H]1CCCN1C(=O)c1coc(C)n1)C(=O)N[C@@H](CC(C)C)C(=O)NC(C)(C)C(=O)N[C@@H](CC(C)C)C(=O)N[C@@H](CC(C)C)C(=O)NC(C)(C)C(=O)NC(C)(C)C(=O)NCCC(=O)NC1(CN(C)C)CCCC1` [Compound 6254, (2S)-N-[(1S)-1-[(1-{[(1S)-1-{[(1S)-1-({1-[(1-{[2-({1-[(dimethylamino)methyl]cyclopentyl}carbamoyl)ethyl]carbamoyl}-1-methylethyl)carbamoyl]-1methylethyl}carbamoyl)-3-methylbutyl]carbamoyl}-3-methylbutyl]carbamoyl}-1-methylethyl)carbamoyl]-3-methylbutyl]-2-{[(2S)-1-(2-methyl-1,3-oxazole-4-carbonyl)pyrrolidin-2-yl]formamido}decanamide] ({Oxazole4CO(2-Me)}-P[Gly(octyl)]L[Aib]LL[Aib][Aib][βAla]-X25): the IC50 in series [1] (setting [5]) was less than 0.8 nM; in series [3] (setting [6]), 34.6 nM; in series [4] (setting [7]) it was 13900 nM.
